What all share (assay type): cell-based
One test relates to IL-1β. As to the kind of experiment: IL-1 beta in LPS-induced PBMCs / CD14+ monocytes, Meso Scale assay. On the procedure:
FIG. 2 represents the activity against IL-1-beta in CD14 monocytes, plated in 96 well plates and pretreated with Compounds 1, 2, or 3, or pomalidomide, for 1 h and then induced with 100 ng/mL LPS for 18-24 h. Cytokines were measured according to MesoScale protocol. Negative control wells were treated with DMSO. Compound activity was measured as a percentage of LPS-induced activity.
(§1) Either frozen primary blood mononuclear cells (PBMCs) or frozen CD14+ mobilized peripheral blood monocytes were purchased from AllCells (PB003F, Normal Peripheral Blood MNC (Alameda, Calif.)). Cells were quick thawed, washed 1-time with RPMI-1640 (10% FBS/1% Pen-Strep) and plated in 96 well plates at 200,000 cells per well. Cells were pretreated with DMSO only, pomalidomide or the indicated compounds for 1 h and then induced with 100 ng/mL lipopolysaccharide (LPS) for 18-24 h. The supernatant was analyzed for IL-1 beta, IL-6, and TNF-alpha, using Meso Scale assay according to manufacturer's protocol. The negative control wells were treated with DMSO.
(§2) Compound activity is measured as fold difference from the DMSO control. Compounds 1, 2, and 3 each reduced expression of IL-1-b in LPS-stimulated PBMCs by over 80% at 1 uM, relative to a just under 80% reduction with pomalidomide at 10 μM (FIG. 2).

The next test deals with IL-6. As to the kind of experiment: IL-6 in LPS-induced PBMCs / CD14+ monocytes, Meso Scale assay. On the procedure:
FIG. 3 represents the activity against IL-6 in CD14, monocytes, plated in 96 well plates and pretreated with Compounds 1, 2, or 3, or pomalidomide, for 1 h and then induced with 100 ng/mL LPS for 18-24 h. Cytokines were measured according to MesoScale protocol. Negative control wells were treated with DMSO. Cells were treated with compound (at the indicated concentrations) or 10 μM pomalidomide. Compound activity was measured as a percentage of LPS-induced activity.
as §1, §2

The next test has as its system TNF-α. As to the kind of experiment: TNF-alpha in LPS-induced PBMCs / CD14+ monocytes, Meso Scale assay. The method, then:
FIG. 4 represents the activity against TNF-alpha in CD14, monocytes, plated in 96 well plates and pretreated with Compounds 1, 2, or 3, or pomalidomide, for 1 h and then induced with 100 ng/mL LPS for 18-24 h. Cytokines were measured according to MesoScale protocol. The negative control wells were treated with DMSO. Cells were treated with compound (at the indicated concentrations) or 10 μM pomalidomide. Compound activity was measured as a percentage of LPS-induced activity.
as §1, §2

The next test concerns IL-2. As to the kind of experiment: IL-2 in PBMCs on anti-human CD3 (OKT3) coated plates, Mesoscale analysis. The settings on record: PBMC, 24 h, relative to DMSO control, read-out: Fold Change IL-2. The method, then: For the IL-2 analysis, 96 well plates were precoated with 1 μg/mL anti-human CD3 antibody (OKT3, eBioscience Inc., San Diego, Calif.). After washing with PBS, compounds were added (50 μL/well) followed by PBMCs diluted at 3-4 million cells/mL (150 μL/well). Plates were incubated for 24 h and the supernatants collected for Mesoscale IL-2 analysis.
as §2

The test system of another test is Molm-13 cells. As to the kind of experiment: Cell viability assay (CellTiter-Glo), Molm-13 cells. As to conditions: Homo sapiens, 72 h, 3 days; for viability at 10 µM: MOLM-13, 10 μM. On the procedure: FIG. 5 represents antiproliferative activity in Molm-13 cells. The cells were incubated with Compound 1, 2, or 3 (at the indicated concentration), DMSO, or pomalidomide. Compound activity was measured based on the signal from remaining viable cells.
(§3) Molm-13 cells were cultivated in RPMI-1640 (10% FBS/1% pen-strep) and were plated in white walled 96-well plates at 20,000 cells/well. H1048 cells were cultured in DMEM:F12 media supplemented with 5% fetal bovine serum, insulin, transferrin, sodium selenite, hydrocortisone, estradiol, penicillin and streptomycin, and were plated in white walled 96-well plates at 20,000 cells/well.
(§4) Cells were treated with compound at the indicated concentration or DMSO (control) and the cultures were incubated for 3 days at 37° C. and 5% CO2. Following the incubation period, 100 μL of CellTiterGlow (CTG) reagent (CellTiter-Glo® Luminescent Cell Viability Assay, Promega (Madison, Wis.)) was added to each well. Following a 10 min incubation with shaking, luminescence was measured using a Victor Wallac Luminometer.

The subject of the next test is H1048 cells. As to the kind of experiment: Cell viability assay (CellTiter-Glo), H1048 cells. As to conditions: Homo sapiens, NCI-H1048, 72 h, 3 days; for viability at 1 µM: H1048, 1 μM; for viability at 10 µM: H1048, 10 μM. The method, then:
as §3, §4

Another test addresses T1, GSPT1 (Homo sapiens, UniProt P15170).
T1 construct: Whole cell extract was prepared with RIPA buffer according to manufacturer's protocol; endogenous in cells; host or cells: Jurkat cells
As to the kind of experiment: Western blot analysis of GSPT1 protein levels in Jurkat cells. The settings on record: DMSO = 100.00; for GSPT1 protein level (% of DMSO control) at 0.1 µM: 100 nM compound; for GSPT1 protein level (% of DMSO control) at 1 µM: 1 uM compound. On the procedure:
FIG. 1 represents the activity against CK1α, ikaros, and GPST1 in Jurkat cells, plated in 96 well plates. Cells were pretreated with compounds for 4 h and then lysed and protein levels measure via Western blots. The negative control wells were treated with DMSO. Cells were treated with the indicated compound at the indicated concentration. Compound activity is measured as a decrease in GSPT1 protein levels.
Western Blot Protocol: Cell lines were grown in RPMI 1640 supplemented with streptomycin, penicillin and 10% fetal bovine serum.
Jurkat cells were cultured at approximately 10^6 cells per mL, DMSO or the indicated compound was added to the cells and allowed to incubate for 6-8 h. Whole cell extract was prepared with RIPA buffer according to manufacturer's protocol (Pierce (Dallas, Tex.)). Briefly, ˜2×10^6 cells were washed once in PBS, the cell pellet was resuspended in RIPA buffer and allowed to incubate for 15 min on ice. Cell debris was removed by centrifugation and the cleared whole cell lysate was transferred to a new tube for further analysis.
For western blot analysis, whole cell extracts were separated on 4-12% SDS-polyacrylamide gels, transferred to nitrocellulose and probed with the indicated primary antibodies. Membranes were subsequently washed and probed with the appropriate horseradish peroxidase (HRP)-conjugated secondary antibody. Membranes were subsequently washed and probed with the appropriate IRDye secondary antibodies (LI-COR). The signal was detected using the Odyssey Imaging System (LI-COR).

T1 sequence (P15170 whole entry): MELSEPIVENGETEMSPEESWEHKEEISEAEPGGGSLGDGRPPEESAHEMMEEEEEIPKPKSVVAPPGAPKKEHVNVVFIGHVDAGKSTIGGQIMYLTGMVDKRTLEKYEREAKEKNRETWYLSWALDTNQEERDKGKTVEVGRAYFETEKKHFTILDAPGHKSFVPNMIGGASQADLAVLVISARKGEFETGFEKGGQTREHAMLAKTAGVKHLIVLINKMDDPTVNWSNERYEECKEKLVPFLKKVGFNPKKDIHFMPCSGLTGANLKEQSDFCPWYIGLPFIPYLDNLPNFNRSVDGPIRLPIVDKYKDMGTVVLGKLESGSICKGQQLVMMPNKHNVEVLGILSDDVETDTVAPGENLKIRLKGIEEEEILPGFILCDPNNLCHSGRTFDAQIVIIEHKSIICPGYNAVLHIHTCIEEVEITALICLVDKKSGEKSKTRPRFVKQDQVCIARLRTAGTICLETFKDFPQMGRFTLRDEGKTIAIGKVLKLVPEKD

For the compound `Cc1ccc(N(C)C(=O)NCc2ccc3c(c2)CN([C@H]2CCCC(=O)NC2=O)C3=O)cc1Cl` [Compound 21, (S)-1-(3-chloro-4-methylphenyl)-3-((2-(2,7-dioxoazepan-3-yl)-1-oxoisoindolin-5-yl)methyl)-1-methylurea], the inhibition at 0.1 µM in the test on IL-1β was found to be 27%; with IL-6, 18%; with TNF-α, 20%. The fold induction at 0.1 µM in the test on IL-2 was determined as 0.9. In addition, the viability at 10 µM in the test with Molm-13 cells amounted to 25%; with H1048 cells, 45.3%. The viability at 1 µM with H1048 cells worked out at 95.5%. The same compound showed a GSPT1 protein level (% of DMSO control) at 0.1 µM on GSPT1 of 126%. On GSPT1, the GSPT1 protein level (% of DMSO control) at 1 µM worked out at 134%.
For `O=C(Cc1cccc(CN2CCOCC2)c1)NCc1ccc2c(c1)CN([C@H]1CCCC(=O)NC1=O)C2=O` [Compound 14, (S)—N-((2-(2,7-dioxoazepan-3-yl)-1-oxoisoindolin-5-yl)methyl)-2-(3-(morpholinomethyl)phenyl)acetamide], the inhibition at 0.1 µM in the test with IL-1β, in the test on IL-6 and with TNF-α was 0% each time. In the test on IL-2, the fold induction at 0.1 µM was 0.9. Further, the viability at 10 µM stood at 28% in the test on Molm-13 cells and 56.2% in the test on H1048 cells. Besides, the viability at 1 µM in the test with H1048 cells turned out to be 101%. For the same compound, the GSPT1 protein level (% of DMSO control) at 0.1 µM at GSPT1 was 145%. The compound also yielded a GSPT1 protein level (% of DMSO control) at 1 µM on GSPT1 of 82.8%.
Consider `Cc1ccc(CNC(=O)NCc2cccc3c2CN([C@H]2CCCC(=O)NC2=O)C3=O)cc1Cl` [Compound 20, (S)-1-(3-chloro-4-methylbenzyl)-3-((2-(2,7-dioxoazepan-3-yl)-1-oxoisoindolin-4-yl)methyl)urea], for which the inhibition at 0.1 µM in the test with IL-1β was determined as 12%; in the test on IL-6, 7%; in the test on TNF-α, 11%. Moreover, the fold induction at 0.1 µM in the test on IL-2 amounted to 1.1. The viability at 10 µM in the test on Molm-13 cells stood at 23%; in the test on H1048 cells, 96.2%. Besides, in the test on H1048 cells, the viability at 1 µM came out at 98.5%. In addition, the GSPT1 protein level (% of DMSO control) at 0.1 µM on GSPT1 stood at 126%. Also, the GSPT1 protein level (% of DMSO control) at 1 µM at GSPT1 is 160%.
Turning to `Cc1ccc(CC(=O)NCc2ccc3c(c2)CN([C@H]2CCCC(=O)NC2=O)C3=O)cc1CN1CCOCC1` [Compound 11, (S)—N-((2-(2,7-dioxoazepan-3-yl)-1-oxoisoindolin-5-yl)methyl)-2-(4-methyl-3-(morpholinomethyl)phenyl)acetamide], the inhibition at 1 µM was determined as 0% in the test on IL-1β, 5% in the test with IL-6 and 12% in the test on TNF-α. Moreover, the fold induction at 1 µM in the test with IL-2 is 0.6. Moreover, the viability at 10 µM in the test with Molm-13 cells is 99%; in the test with H1048 cells it was 11.6%. Besides, in the test with H1048 cells, the viability at 1 µM turned out to be 70.8%. At GSPT1, this compound returned a GSPT1 protein level (% of DMSO control) at 0.1 µM of 137%. Besides, the GSPT1 protein level (% of DMSO control) at 1 µM at GSPT1 was 56%.
For `Cc1ccc(CC(=O)NCc2ccc3c(c2)CN([C@H]2CCCC(=O)NC2=O)C3=O)cc1` [Compound 9, (S)—N-((2-(2,7-dioxoazepan-3-yl)-1-oxoisoindolin-5-yl)methyl)-2-(p-tolyl)acetamide], the figures for the inhibition at 1 µM in the test with IL-1β, in the test on IL-6 and with TNF-α were 61%, 63% and 64%, respectively. For the same compound, in the test on IL-2, the fold induction at 1 µM was determined as 1.8. Besides, the viability at 10 µM in the test with Molm-13 cells came out at 99%; in the test on H1048 cells, 7.27%. In addition, the viability at 1 µM in the test on H1048 cells stood at 57.1%. In addition, at GSPT1, the GSPT1 protein level (% of DMSO control) at 0.1 µM turned out to be 128%. Also, the GSPT1 protein level (% of DMSO control) at 1 µM at GSPT1 is 32.1%.
For `COc1ccc(NC(=O)NCc2ccc3c(c2)CN([C@H]2CCCC(=O)NC2=O)C3=O)cc1Cl` [Compound 8, (S)-1-(3-chloro-4-methoxyphenyl)-3-((2-(2,7-dioxoazepan-3-yl)-1-oxoisoindolin-5-yl)methyl)urea], the figures for the inhibition at 1 µM in the test with IL-1β, in the test with IL-6 and in the test on TNF-α were 78%, 95% and 84%, respectively. Also, the fold induction at 1 µM in the test with IL-2 was 0.9. Further, in the test with Molm-13 cells (MOLM-13, 0.5 μM), the viability at 0.5 µM is 48%. Moreover, the viability at 1 µM in the test with H1048 cells came to 17.4%. Further, the viability at 10 µM in the test with H1048 cells came out at 4.4%. In addition, on GSPT1, the GSPT1 protein level (% of DMSO control) at 0.1 µM stood at 52.6%. For the same compound, the GSPT1 protein level (% of DMSO control) at 1 µM at GSPT1 turned out to be 14.9%.
In the case of `Cc1ccc(NC(=O)NCc2cc3c(cc2F)C(=O)N([C@H]2CCCC(=O)NC2=O)C3)cc1Cl` [Compound 22, (S)-1-(3-chloro-4-methylphenyl)-3-((2-(2,7-dioxoazepan-3-yl)-6-fluoro-1-oxoisoindolin-5-yl)methyl)urea], the inhibition at 0.1 µM amounted to 82% with IL-1β, 58% with IL-6 and 74% in the test on TNF-α. Moreover, the fold induction at 0.1 µM in the test with IL-2 turned out to be 2. The viability at 1 µM with Molm-13 cells (MOLM-13, 1 μM) stood at 2.45%; in the test on H1048 cells, 11.5%. The viability at 10 µM in the test with H1048 cells came out at 4.04%. The compound further returned a GSPT1 protein level (% of DMSO control) at 0.1 µM on GSPT1 of 22.1%. The same compound displayed a GSPT1 protein level (% of DMSO control) at 1 µM at GSPT1 of 5.56%.
Regarding `O=C1CCC[C@H](N2Cc3cc(CNC(=O)C(F)(F)c4ccc(F)cc4)ccc3C2=O)C(=O)N1` [Compound 25, (S)—N-((2-(2,7-dioxoazepan-3-yl)-1-oxoisoindolin-5-yl)methyl)-2,2-difluoro-2-(4-fluorophenyl)acetamide], the inhibition at 0.1 µM with IL-1β was 38%; in the test on IL-6, 12%; in the test on TNF-α, 36%. The fold induction at 0.1 µM in the test on IL-2 stood at 1.4. In addition, the figures for the viability at 10 µM in the test on Molm-13 cells and in the test with H1048 cells were 96% and 26.6%, respectively. In addition, in the test on H1048 cells, the viability at 1 µM was found to be 88.1%. In addition, at GSPT1, the GSPT1 protein level (% of DMSO control) at 0.1 µM was determined as 98.1%. Besides, the GSPT1 protein level (% of DMSO control) at 1 µM on GSPT1 is 63.5%.
